# Laboratory results: the supplement of paper PMC10307832
# How the values were obtained:
# Test in all cases: relative viability (nuclei count vs DMSO), 5 days (fraction); higher = more cells survive
# Avagacestat + Dasatinib = compound: NC(=O)[C@@H](CCC(F)(F)F)N(Cc1ccc(-c2ncon2)cc1F)S(=O)(=O)c1ccc(Cl)cc1 [Avagacestat] + Cc1nc(Nc2ncc(C(=O)Nc3c(C)cccc3Cl)s2)cc(N2CCN(CCO)CC2)n1 [Dasatinib] (partner 0.075 µM)
# Method in brief: (§1)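 After 5 days of treatment, lung cancer cells in 1536-well plates were fixed and stained in a single step (final 0.05% Triton X-100, 1% formaldehyde, 1 ug/ml Hoechst) and their nuclei counted on 4× images. Treatment had been applied by pin tool the day after seeding as one drug alone or as a fixed anchor-drug dose with five library-drug doses (not always all listed) in √10 steps. Relative viability is the nuclei count of treated wells divided by that of vehicle wells, and values are medians of duplicate plates.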
# Avagacestat + Crizotinib = compound: NC(=O)[C@@H](CCC(F)(F)F)N(Cc1ccc(-c2ncon2)cc1F)S(=O)(=O)c1ccc(Cl)cc1 [Avagacestat] + C[C@@H](Oc1cc(-c2cnn(C3CCNCC3)c2)cnc1N)c1c(Cl)ccc(F)c1Cl [Crizotinib] (partner 1 µM)
# Method in brief: as §1
# Avagacestat + Navitoclax = compound: NC(=O)[C@@H](CCC(F)(F)F)N(Cc1ccc(-c2ncon2)cc1F)S(=O)(=O)c1ccc(Cl)cc1 [Avagacestat] + CC1(C)CCC(c2ccc(Cl)cc2)=C(CN2CCN(c3ccc(C(=O)NS(=O)(=O)c4ccc(N[C@H](CCN5CCOCC5)CSc5ccccc5)c(S(=O)(=O)C(F)(F)F)c4)cc3)CC2)C1 [Navitoclax] (partner 0.5 µM)
# Method in brief: as §1
# Avagacestat + Vorinostat = compound: NC(=O)[C@@H](CCC(F)(F)F)N(Cc1ccc(-c2ncon2)cc1F)S(=O)(=O)c1ccc(Cl)cc1 [Avagacestat] + O=C(CCCCCCC(=O)Nc1ccccc1)NO [Vorinostat] (partner 1 µM)
# Method in brief: as §1
Cell Line,relative viability (Avagacestat + Dasatinib; first compound 0.08 µM),relative viability (Avagacestat + Dasatinib; first compound 0.253 µM),relative viability (Avagacestat + Dasatinib; first compound 0.8 µM),relative viability (Avagacestat + Dasatinib; first compound 2.53 µM),relative viability (Avagacestat + Dasatinib; first compound 8 µM),relative viability (Avagacestat + Crizotinib; first compound 0.08 µM),relative viability (Avagacestat + Crizotinib; first compound 0.253 µM),relative viability (Avagacestat + Crizotinib; first compound 0.8 µM),relative viability (Avagacestat + Crizotinib; first compound 2.53 µM),relative viability (Avagacestat + Crizotinib; first compound 8 µM),relative viability (Avagacestat + Navitoclax; first compound 0.08 µM),relative viability (Avagacestat + Navitoclax; first compound 0.253 µM),relative viability (Avagacestat + Navitoclax; first compound 0.8 µM),relative viability (Avagacestat + Navitoclax; first compound 2.53 µM),relative viability (Avagacestat + Navitoclax; first compound 8 µM),relative viability (Avagacestat + Vorinostat; first compound 0.08 µM),relative viability (Avagacestat + Vorinostat; first compound 0.253 µM),relative viability (Avagacestat + Vorinostat; first compound 0.8 µM),relative viability (Avagacestat + Vorinostat; first compound 2.53 µM),relative viability (Avagacestat + Vorinostat; first compound 8 µM)
NCI-H1975,0.395,0.478,0.386,0.402,0.384,0.989,1.1,1.1,0.926,0.905,1.26,1.28,1.25,1.07,1.02,0.823,0.866,0.765,0.694,0.628
LC-2-ad,0.558,0.489,0.646,0.447,0.343,0.548,0.367,0.458,0.435,0.391,0.652,0.528,0.534,0.423,0.428,0.73,0.847,0.74,0.654,0.595
NCI-H2023,0.564,0.643,0.563,0.419,0.422,0.751,0.78,0.583,0.577,0.602,1.14,1.28,1.12,0.834,0.894,0.625,0.554,0.617,0.471,0.6
NCI-H2228,0.546,0.426,0.435,0.408,0.474,0.472,0.487,0.427,0.465,0.423,1.25,1.19,1.08,0.903,0.956,0.752,0.787,0.569,0.641,0.511
NCI-H1650,0.37,0.35,0.272,0.304,0.346,1.07,0.967,1.37,0.916,1.06,1.1,1.31,1.52,1.43,1.12,0.593,0.692,0.51,0.599,0.67
HCC-78,0.452,0.273,0.343,0.327,0.331,0.322,0.343,0.338,0.322,0.314,0.884,0.818,0.791,0.665,0.68,0.499,0.458,0.416,0.391,0.351
RERF-LC-KJ,0.974,0.915,0.776,0.748,0.664,0.799,0.839,0.924,0.792,0.761,1.11,0.878,0.874,0.982,1.1,0.724,0.64,0.801,0.685,0.601
SK-MES-1,0.33,0.301,0.394,0.247,0.364,0.943,1.06,0.97,0.902,0.915,1.32,1.29,1.27,1.2,1.27,1.12,1.35,1.29,1.06,1.02
NCI-H1437,0.283,0.278,0.346,0.291,0.211,1.14,1.1,1.12,1.05,0.824,1.39,1.22,1.1,1.04,0.979,1.03,1.12,1.11,0.893,0.728
HOP-62,0.701,0.63,0.626,0.502,0.484,0.936,1.08,0.995,1.05,1.03,1.26,1.12,0.962,0.978,0.895,0.822,0.667,0.65,0.588,0.564
HARA,0.234,0.254,0.228,0.262,0.239,1.23,1.27,1.06,1.03,0.76,1.39,1.27,1.23,1.17,1.2,0.572,0.551,0.524,0.716,0.549
NCI-H441,0.518,0.471,0.541,0.532,0.454,0.977,0.816,0.71,1.19,0.629,0.504,0.491,1.01,0.49,0.668,0.991,0.932,0.899,0.761,0.595
NCI-H2405,0.186,0.204,0.217,0.229,0.226,0.881,0.825,0.81,0.849,0.853,0.864,0.937,0.779,0.638,0.797,1.04,1.1,1.12,0.943,0.933
NCI-H1993,0.53,0.549,0.586,0.491,0.538,0.925,0.777,1.03,0.907,0.879,1.08,0.995,1.09,0.905,1.04,0.797,0.771,0.74,0.7,0.631
NCI-H460,0.625,0.59,0.747,0.402,0.475,1.86,1.69,0.977,0.893,0.853,,1.92,1.37,0.759,1.15,1.37,0.69,0.828,0.554,0.57
A-427,0.785,0.859,0.755,0.935,0.649,0.986,1.19,0.842,0.75,0.837,0.994,0.99,1.03,0.967,0.968,0.958,0.945,1.03,0.946,0.952
